This is an account of results in PubChem BioAssay (NCI).

Each structure is given as a SMILES string.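 Method: 48-hour compound exposure of cells in 96-well plates, five concentrations, linear interpolation of endpoints. TGI: concentration producing complete growth inhibition.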 Where only a bound is given, the exact number is not on record here.

Assay in all cases: growth of human tumour cells (NCI), 48 h
Assay [1] has as its system KM12 colon.
Assay [2] has as its system SK-MEL-2 melanoma.
For assay [3], the system named is SF-295 CNS.
Assay [4] deals with SN12C renal.
Assay [5] relates to SK-MEL-5 melanoma.
Assay [6] has as its system IGROV1 ovarian.
Assay [7] deals with PC-3 prostate.
Assay [8] has as its system A498 renal.
Assay [9] relates to MOLT-4 leukemia.
In assay [10] the test system is CCRF-CEM leukemia.

For the compound `NS(=O)(=O)c1cc2c(cc1Cl)NC(CCC(=O)O)=NS2(=O)=O`, the TGI in assay [1], in [2], in assay [3], in [4], in [5] and in [6] was greater than 100 µM throughout. For the same compound, the TGI in [7] and in [8] was greater than 100 µM each time.
`CC1OC(OC2C(OC(=O)[C@]34CCC(C)(C)C[C@H]3C3=CC[C@@H]5[C@@]6(C)CC[C@H](OC7OC(C(=O)O)C(O)C(O)C7O)C(C)(C)[C@@H]6CC[C@@]5(C)[C@]3(C)C[C@H]4O)OCC(O)C2O)C(O)C(OC2OCC(O)(CO)C2O)C1OC1OCC(O)C(O)C1O` (stereo partly drawn): the TGI in assay [1] amounted to 16.3 µM; in assay [2], 20 µM; in [3] it was 26.9 µM; in [4], 11 µM; in assay [5], 28.1 µM; in assay [6], 33.3 µM. Besides, the TGI in assay [7] worked out at 21.3 µM; in assay [9], 38.8 µM; in [8], 3.47 µM; in assay [10] it was 52.1 µM.
With `CCOC(=O)Cn1c(=O)c2nc(SC)sc2n(-c2ccccc2)c1=O`, the TGI in assay [1], in assay [2], in assay [4], in [5], in assay [6] and in [7] was greater than 100 µM in each case. Moreover, the TGI in assay [9], in [8] and in assay [10] was greater than 100 µM each time.
As to `CCOC(=O)c1nc2c(nc1C(=O)OCC)C(=O)c1ccccc1C2=O`, the TGI in [1] was 14.7 µM; in assay [2] it was 1.5 µM; in assay [3], 1.55 µM; in assay [4], 0.4 µM; in assay [5], 2.19 µM; in [6], 23.8 µM. The TGI in [7] was 11.2 µM; in assay [9] it was 6.31 µM; in assay [8], 4.38 µM; in [10], greater than 100 µM.
For the compound `Cc1ccc2c(c1)C(=O)C1(Cc3ccccc3C1=O)C2` (stereo not drawn), the TGI in assay [1], in assay [3], in [4], in [5], in [6] and in assay [7] was greater than 100 µM in each case. In addition, the TGI in [9], in assay [8] and in assay [10] was greater than 100 µM each time.
On to `O=c1c2sc(=S)n(-c3ccc(F)cc3)c2ncn1/N=C/c1ccc(F)cc1F`, for which the TGI in assay [1] is greater than 100 µM; in assay [2], 85.6 µM; in assay [3], 65.8 µM; in [4] it was greater than 100 µM; in [5] it was greater than 100 µM; in assay [6], 89.1 µM. The TGI in assay [7] is greater than 100 µM; in assay [8] it was 58.2 µM; in assay [10] it was greater than 100 µM.
Regarding `CS(=O)c1ncc2c(n1)-c1ccccc1OC2` (stereo not drawn), the TGI in assay [1], in [2], in assay [3], in assay [4], in assay [5] and in [6] was greater than 100 µM throughout. Moreover, the TGI in assay [7], in [9] and in [10] was greater than 100 µM in each case.
As to `CC1CCC(C(=O)O)(C(Br)C(=O)O)CC1` (stereo not drawn), the TGI in assay [1], in assay [2], in assay [3], in assay [4], in assay [5] and in assay [6] was greater than 100 µM each time. Further, the TGI in assay [7], in assay [9] and in assay [10] was greater than 100 µM throughout.
Consider `O=C(O)c1ccccc1CC1Cc2ccccc2C1=O` (stereo not drawn), for which the TGI in assay [1], in assay [2], in assay [3], in assay [4], in assay [5] and in [6] was greater than 100 µM each time. The TGI in [7], in assay [9] and in assay [10] was greater than 100 µM in each case.
Turning to `CCOP(=O)(OCC)C(c1ccc(F)cc1)N(C(=O)NC(F)(F)F)c1ccc(OC)cc1` (stereo not drawn), the TGI in assay [1], in [3], in assay [4], in assay [5], in assay [6] and in [9] was greater than 100 µM each time. Further, the TGI in [10] was greater than 100 µM.
Regarding `CSC(=S)N/N=C(\C)c1ccc(S(=O)(=O)N(C)c2ccccc2)cc1`, the TGI in assay [1], in [2], in [3], in assay [4], in [6] and in assay [7] was greater than 100 µM throughout. Also, the TGI in assay [9] and in assay [8] was greater than 100 µM in each case.
For the compound `O=C1c2ccccc2-c2c1c(-c1ccc(F)cc1)nc1ccc3ccccc3c21`, the TGI in [1], in assay [2], in assay [3], in assay [4], in [7] and in [9] was greater than 100 µM in each case. For the same compound, the TGI in assay [8] and in [10] was greater than 100 µM in each case.
On to `O=C(O)CCC(=O)OC1N=C(c2ccccc2Cl)c2cc([N+](=O)[O-])ccc2NC1=O` (stereo not drawn), for which the TGI in [1], in [2], in assay [3], in assay [4], in [6] and in [7] was greater than 100 µM throughout. Moreover, the TGI in assay [8] and in assay [10] was greater than 100 µM in each case.
For `CCOC(=O)c1ccc(NCC#CCN2CCOCC2)cc1`, the TGI in assay [1], in assay [2], in assay [4], in assay [5], in assay [6] and in assay [7] was greater than 100 µM throughout. The TGI in assay [9], in assay [8] and in assay [10] was greater than 100 µM throughout.
For `COc1ccc(-c2nc(SCC(=O)N/N=C/c3ccc(N(C)C)cc3)[nH]c2-c2ccc(OC)cc2)cc1`, the TGI in [1], in assay [2], in assay [3], in assay [4], in assay [5] and in assay [6] was greater than 100 µM throughout. Also, the TGI in [7], in assay [8] and in assay [10] was greater than 100 µM throughout.
Turning to `CCN(CC)CCn1c(=O)c2cccnc2n2c3c(=O)n(C)c(=O)n(C)c3nc12`, the TGI in assay [1], in assay [2], in assay [3], in assay [4], in assay [5] and in assay [6] was greater than 100 µM throughout. Also, the TGI in [7], in assay [9] and in assay [10] was greater than 100 µM each time.
Take `CS(=O)(=O)OCC(CCl)(CCl)CCl`: the TGI in assay [1], in [3], in [4], in assay [5], in assay [7] and in [9] was greater than 100 µM each time. Moreover, the TGI in assay [8] and in [10] was greater than 100 µM each time.
Turning to `CC(=N/N=C/c1ccccn1)/C(C)=N/N=C(C)/C(C)=N/N=C(C)/C(C)=N/N=C(C)/C(C)=N\N=C\c1ccccn1`, the TGI in assay [1], in assay [2], in assay [3], in assay [4], in [5] and in [6] was greater than 100 µM in each case. Besides, the TGI in [7] and in [8] was greater than 100 µM throughout.
Consider `CSC(=S)N(C)C`, for which the TGI in assay [1], in assay [2], in assay [3], in assay [4], in assay [5] and in [6] was greater than 100 µM each time. In addition, the TGI in [9], in [8] and in assay [10] was greater than 100 µM throughout.
`COc1ccc(C2=N/C(=C\c3ccccc3)C(=O)O2)cc1`: the TGI in assay [1] was greater than 100 µM; in assay [2], greater than 100 µM; in assay [3] it was greater than 100 µM; in [6], greater than 100 µM; in assay [7], greater than 100 µM; in assay [9], 52.6 µM. The TGI in assay [10] is greater than 100 µM.
As for `CCN(CC)CCN(C(=Nc1ccccc1)N1CCOCC1)c1ccccc1`, the TGI in assay [1], in assay [2], in [3], in assay [4], in assay [5] and in assay [6] was greater than 100 µM throughout. The TGI in assay [7], in assay [9] and in assay [10] was greater than 100 µM each time.
Regarding `O=C(CC(C(=O)c1ccsc1)c1ccc2c(c1)OCO2)c1ccccc1` (stereo not drawn), the TGI in [1], in assay [3], in [4], in assay [5], in [6] and in assay [9] was greater than 100 µM throughout. Further, the TGI in assay [8] and in assay [10] was greater than 100 µM in each case.
As to `CCC1(CC)C(=O)NN(C(=O)c2ccccc2)C1=O`, the TGI in assay [1], in [2], in assay [3], in assay [4], in assay [5] and in assay [6] was greater than 100 µM in each case. For the same compound, the TGI in [7], in assay [9] and in assay [10] was greater than 100 µM throughout.
As for `CCNC(=O)Cc1nc2c(N)ncnc2n1C1OC(CO)C(O)C1O` (stereo not drawn), the TGI in assay [1], in assay [2], in [3], in assay [4], in assay [5] and in assay [6] was greater than 100 µM each time. Besides, the TGI in [7], in [9] and in assay [8] was greater than 100 µM each time.
`COc1ccc(NC(=O)CC(=O)N2N=C(N3c4ccccc4Sc4ccccc43)CC2c2ccccc2)cc1` (stereo not drawn): the TGI in assay [1], in assay [2], in [3], in assay [4], in assay [5] and in assay [6] was greater than 100 µM throughout. The TGI in [7], in assay [9] and in [10] was greater than 100 µM in each case.
On to `COc1cc(/C=C/C(=O)CC(=O)/C=C/c2ccc(OC(=O)CCCCC3CCSS3)c(OC)c2)ccc1OC(=O)CCCCC1CCSS1` (stereo not drawn), for which the TGI in assay [1], in [2], in assay [3], in assay [4], in assay [5] and in assay [6] was greater than 100 µM throughout. In addition, the TGI in [7], in [9] and in [10] was greater than 100 µM in each case.
In the case of `[O-][n+]1ccccc1Sc1nc(Sc2cccc[n+]2[O-])nc(Sc2cccc[n+]2[O-])n1`, the TGI in assay [1] was determined as 3.88 µM; in assay [2], 3.71 µM; in [3], 11.1 µM; in assay [4], 3.48 µM; in assay [5], 3.07 µM; in assay [6], 3.03 µM. Besides, the TGI in assay [7] was 2.19 µM; in assay [8], 8.37 µM; in assay [10] it was greater than 100 µM.
`CN(C)C1(N(C)C)Oc2c(c(=O)n(C)c(=O)n2C)C(c2ccc(Br)cc2)C1(F)F` (stereo not drawn): the TGI in assay [1], in assay [2], in assay [3], in [5], in assay [7] and in assay [9] was greater than 100 µM in each case. Moreover, the TGI in [8] and in assay [10] was greater than 100 µM throughout.
As to `CC1(C)C2CCC1(C)[C@H](n1c(=O)n([C@@H]3CC4CCC3(C)C4(C)C)c(=O)n([C@@H]3CC4CCC3(C)C4(C)C)c1=O)C2`, the TGI was greater than 100 µM in assay [1]; 72.7 µM in [2]; greater than 100 µM in assay [3]; greater than 100 µM in [5]; greater than 100 µM in [6]; greater than 100 µM in assay [7]. Also, the TGI in [9] and in [8] was greater than 100 µM in each case.
As for `CSc1nsc(-c2ccccc2)[s+]1`, the TGI in [1], in [2], in assay [4], in assay [5], in assay [6] and in assay [9] was greater than 100 µM each time. Further, the TGI in assay [8] and in assay [10] was greater than 100 µM throughout.
